Like-named read-outs stand apart in the source and are kept apart here.
Legend:
SARS-CoV-2 USA-WA1/2020 = assay: microbe, parasite or virus in culture; assay type: cell-based; conditions: read-out: SARS-CoV-2 BSL3 EC50
SARS-CoV-2 replicon = assay: microbe, parasite or virus in culture; assay type: cell-based; conditions: Severe acute respiratory syndrome coronavirus 2, Huh-7
[1] = biological target: SARS-CoV-2 Papain-like (PLpro) protease (Severe acute respiratory syndrome coronavirus 2, UniProt P0DTD1); assay: SARS-CoV-2 Papain-like (PLpro) protease biochemical enzyme inhibition assay (ubiquitin-fluorophore substrate, Ub-R110); conditions: Ub-R110 substrate; run in duplicate; read-out: PLpro IC50
[2] = Severe acute respiratory syndrome coronavirus 2, 144 h, Vero 76 cells, SARS-CoV-2 USA-WA1/2020, neutral red, day 6

Row | SMILES | EC50 (SARS-CoV-2 USA-WA1/2020; [2]) [µM] | EC50 (SARS-CoV-2 replicon) [µM] | IC50 [1] [µM] | EC50 (SARS-CoV-2 USA-WA1/2020; Severe acute respiratory syndrome coronavirus 2, Vero 76, 144 h) [µM]
1 | N#CCNC(=O)C(=O)NCc1ccc(-c2ccn(C(F)F)n2)cc1C(=O)NC1(c2ccc(F)c3ccccc23)CC1 [Example 125] | < 1 | 1 to 10 | < 0.1 | –
2 | O=C(C#CCNC(=O)C(=O)NCc1ccccc1C(=O)NC1(c2ccc3ccccc3c2)CC1)N[C@]12C[C@](C(F)(F)F)(C1)C2 [Example 537] | < 1 | < 1 | < 0.1 | –
3 | O=C(C#CCNC(=O)C(=O)NCc1ccccc1C(=O)NC1(c2ccc3ccccc3c2)CC1)NC1CC1 [Example 536] | < 1 | < 1 | < 0.1 | –
4 | O=C(NCC#CC(=O)N1CC(F)(F)C1)C(=O)NCc1ccccc1C(=O)NC1(c2cccc3ccccc23)CC1 [Example 529] | < 1 | < 1 | < 0.1 | –
5 | COC(=O)/C=C/CCNC(=O)C(=O)NCc1ccccc1C(=O)N[C@H](C)c1cccc2ccccc12 [Example 1] | < 1 | < 1 | < 0.1 | –
6 | N#CCNC(=O)C(=O)NCc1ccccc1C(=O)NC1(c2cc(Cl)cc(-c3cccs3)c2)CC1 [Example 457, N1-(2-((1-(3-chloro-5-(thiophen-2-yl)phenyl)cyclopropyl)carbamoyl)benzyl)-N2-(cyanomethyl)oxalamide] | – | 1 to 10 | < 0.1 | 1 to 10
7 | O=C(NCC#CC(=O)N1CC2CC2C1)C(=O)NCc1ccccc1C(=O)NC1(c2cccc3ccccc23)CC1 (centres unmarked) [Example 528] | < 1 | < 1 | < 0.1 | –
8 | COC(=O)/C=C/CNC(=O)C(=O)NCc1ccccc1C(=O)N[C@H](C)c1cccc2ccccc12 [Example 2] | < 1 | < 1 | < 0.1 | –
9 | O=C(C#CCNC(=O)C(=O)NCc1ccccc1C(=O)NC1(c2cccc3ccccc23)CC1)N[C@]12C[C@](C(F)(F)F)(C1)C2 [Example 525] | 1 to 10 | < 1 | < 0.1 | –
10 | O=C(NCC#CC(=O)N1CC2CC2C1)C(=O)NCc1ccccc1C(=O)NC1(c2ccc3ccccc3c2)CC1 (centres unmarked) [Example 527] | < 1 | < 1 | < 0.1 | –
11 | O=C(C#CCNC(=O)C(=O)NCc1ccccc1C(=O)NC1(c2cccc3ccccc23)CC1)NC1CC1 [Example 518] | < 1 | < 1 | < 0.1 | –
12 | COC(=O)/C=C/CCNC(=O)C(=O)NCc1ccccc1C(=O)NC1(c2cccc3ccccc23)CC1 [Example 3] | < 1 | < 1 | < 0.1 | –
13 | C#CCNC(=O)C(=O)NCc1ccc(-c2ccn(C(F)F)n2)cc1C(=O)NC1(c2ccc(F)c3ccccc23)CC1 [Example 126] | < 1 | < 1 | < 0.1 | –
14 | O=C(NCC#CC(=O)N1CC(F)(F)C1)C(=O)NCc1ccccc1C(=O)NC1(c2ccc3ccccc3c2)CC1 [Example 535] | 1 to 10 | < 1 | < 0.1 | –
15 | N#CN1CC(CNC(=O)C(=O)NCc2ccccc2C(=O)NC2(c3cccc4ccccc34)CC2)C1 [Example 435] | – | < 1 | < 0.1 | –
16 | O=C(NCC#Cc1nccs1)C(=O)NCc1ccccc1C(=O)NC1(c2cc(F)cc(C(=O)Nc3ccc(F)cc3F)c2)CC1 [Example 82] | – | < 1 | < 0.1 | –
17 | N#CCNC(=O)C(=O)NCc1ccccc1C(=O)NC1(c2cccc3nc(Cl)ccc23)CC1 [Example 386] | – | < 1 | < 0.1 | –

Row | SMILES | EC50 (SARS-CoV-2 USA-WA1/2020; [2]) [µM] | EC50 (SARS-CoV-2 replicon) [µM] | IC50 [1] [µM] | EC50 (SARS-CoV-2 USA-WA1/2020; Severe acute respiratory syndrome coronavirus 2, Vero 76, 144 h) [µM]
18 | COC(=O)/C(C)=C/CNC(=O)C(=O)NCc1ccccc1C(=O)N[C@H](C)c1cccc2ccccc12 [Example 24] | – | < 1 | < 0.1 | –
19 | CC(C)Oc1cccnc1C#CCNC(=O)C(=O)NCc1ccccc1C(=O)NC1(c2cc(F)cc(-c3cnn(C4CC4)c3)c2)CC1 [Example 267] | – | < 1 | < 0.1 | –
20 | C#CCNC(=O)C(=O)NCc1ccccc1C(=O)NC1(c2cc(F)c(F)c(-c3cccs3)c2)CC1 [Example 241] | – | 1 to 10 | < 0.1 | –
21 | N#CN1CC[C@H](C(=O)NCc2ccccc2C(=O)NC2(c3cc(-c4cnn(C5CC5)c4)cc4ncccc34)CC2)C1 [Example 419] | – | < 1 | < 0.1 | –
22 | C[C@@H](C#Cc1ccc(C#N)cc1F)NC(=O)C(=O)NCc1ccccc1C(=O)NC1(c2ccc3nn(C)cc3c2)CC1 [Example 98] | – | < 1 | < 0.1 | –
23 | O=C(NCC#Cc1nccs1)C(=O)NCc1ccccc1C(=O)NC1(c2cc(F)cc(-n3cc(C4CC4)cn3)c2)CC1 [Example 489] | – | < 1 | < 0.1 | –
24 | O=C(NCC#Cc1nccs1)C(=O)NCc1ccccc1C(=O)NC1(c2cc(Cl)cc(-c3ncco3)c2)CC1 [Example 487] | – | < 1 | < 0.1 | –
25 | O=C(NCC#Cc1nccs1)C(=O)NCc1ccccc1C(=O)NC1(c2cnc3ccccc3c2)CC1 [Example 393] | – | 1 to 10 | < 0.1 | –
26 | N#CCNC(=O)C(=O)NCc1ccccc1C(=O)NC1(c2cc(Cl)cc(-c3cnco3)c2)CC1 [Example 451] | – | 1 to 10 | < 0.1 | –
27 | C#CCNC(=O)C(=O)NCc1ccccc1C(=O)NC1(c2cc(Cl)cc(-c3cc4ccccc4s3)c2)CC1 [Example 445] | – | 1 to 10 | < 0.1 | –
28 | C#CCNC(=O)C(=O)NCc1ccccc1C(=O)NC1(c2cc(Cl)cc(-c3c(C)nn(C4CC4)c3C)c2)CC1 [Example 131] | – | < 1 | < 0.1 | –
29 | O=C(NC/C=C/C(=O)n1cccn1)C(=O)NCc1ccccc1C(=O)NC1(c2cccc3ccccc23)CC1 [Example 567] | – | 1 to 10 | 0.1 to 1 | –
30 | O=C(NCC#Cc1ncccc1OC(F)(F)F)C(=O)NCc1ccccc1C(=O)NC1(c2ccc3ccccc3c2)CC1 [Example 201] | – | < 1 | < 0.1 | –
31 | Cc1nn(C)c(C)c1-c1cc(F)cc(C2(NC(=O)c3ccccc3CNC(=O)C(=O)NCC#Cc3nccs3)CC2)c1F [Example 295] | – | < 1 | < 0.1 | –
32 | O=C(NCC#Cc1nccs1)C(=O)NCc1cccnc1C(=O)NC1(c2cc(F)cc(-c3cnn(C4CC4)c3)c2)CC1 [Example 84] | – | < 1 | < 0.1 | –
33 | N#Cc1ccc(C#CCNC(=O)C(=O)NCc2ccccc2C(=O)NC2(c3ccc4ccccc4c3)CC2)c(F)c1 [Example 86] | – | < 1 | < 0.1 | –

Reference: patent publication US20240327334A1, “Covalent Inhibitors As Antiviral Agents” (Enanta Pharmaceuticals, Inc., priority 2022, published 2024)
